Measurements published in patent US20110152303A1, “Chemical Compounds” (GlaxoSmithKline LLC, priority 2009, published 2011).
pIC50: −log10 of the molar value.

System: VSV-G pseudotyped, replication defective HIV vector (HIV IIIB) in CIP4 cells
Assay: microbe, parasite or virus in culture
Type: cell-based
Details: Human immunodeficiency virus 1, CIP4, 48 h, read-out: IC50 in the PHIV assay

## [2H]C([2H])([2H])c1cc(/C=C/C#N)cc(C([2H])([2H])[2H])c1Nc1ccnc(Nc2ccc(C#N)cc2)n1 [Compound D, (E)-4-((4-((4-(2-Cyanovinyl)-2,6-dimethylphenyl)amino)pyrimidin-2-yl)amino)benzonitrile-d6]
  pIC50: 9.52
